# Measured values reported in ChEMBL document CHEMBL1156373, “Sesquiterpenes from the Formosan stolonifer Tubipora musica” (2001).
# Tested on: P388
# Experiment: Cytotoxicity against mouse P388 cells
# Format: functional
# Conditions: read-out: ED50 (the source's name)
row,SMILES,EC50
1,CC1=CC=C[C@@]2(C)C[C@@H]3OC(=O)C(C)=C3C[C@@H]12 [TUBIPOLIDE B],3.69 µg/mL
2,CC(=O)OCC1=CC(C)=C[C@@]2(C)C[C@]3(C[C@H]12)C(=O)O[C@H]1O[C@H]13 [SPIROTUBIPOLIDE],3.24 µg/mL
3,CC(=O)OCC1=CC=C[C@@]2(C)C=C3OC(=O)C(C)=C3C[C@@H]12 [TUBIPOLIDE G],4.01 µg/mL
